Data set [1] is described as follows: Comparison of DNA pH sensors with pH sensitive organic dyes and GFP based probes. Conditions: for Working regime: pH.
For data set [2], the system named is IA2.2 cells expressing scFv-furin. Description: SimpHony of early and late endosomes with and without Dynasore. Format: cell-based, Chinese Hamster. How it is done: The DNA sensor of the present disclosure is applied to this system, by marking early endosomes with about 500 nM Tf-I^TfA488/A647 and late endosomes with about 500 nM I^FuA546/A647 in the presence and absence of Dynasore. I^n the absence of Dynasore, early endosomes undergo active fusion and fission; showing an average pH of about 6.05±0.07 (FIG. 17) while the late endosomes show an average pH of about 5.43±0.3.
FIG. 17 depicts Dynasore mediated arrest of endosomal fission. Early/sorting and late endosomes in IA2.2 cells expressing scFv-furin are marked with about 500 nM Tf-I^TfA488/A647 at 37° C. for 10 min. Time lapse images of control cells (−Dy) where no dynasore is added, (+Dy) in presence of about 160 μM dynasore and (W) after dynasore is washed out and incubated for about 10 min at about 37° C. for recovery. Images are acquired with a time interval of about 2 s over 2 min period and compressed to a movie playing at 7 fps.

Data set [3] relates to scFv-furin expressing IA2.2 cells. Briefly: SimpHony of early endosomes and TGN with and without Brefeldin A. Type of data set: cell-based, Chinese Hamster. Conditions: BFA 20 μg/mL, 10 min. An excerpt:
SimpHony is applied on BFA-induced tubules positive for furin marked by I^FuA546/A647 while simultaneously marking transferrin containing endosomes with Tf-I^TfA488/A647. BFA treated cells show tubular extensions emerging from compartments localize near the MTOC (FIG. 18a). Tf-I^TfA488/A647 in these cells occupies the excluded space of I^FuA546/A647 in the region around the MTOC in addition to a few cytoplasmic endosomes (FIG. 19b).
FIG. 19 depicts localization of Tf-I^Tf and I^Fu DNA sensors in compartments after BFA treatment. scFv-Furin expressing IA2.2 cells are pulsed with about 500 nM I^FuA546/647 for 2 hours and chased for 30 min in presence of CHX followed by absence (a) or presence (b) of BFA (about 20 μg/mL) treatment of about 10 min at about 37° C. Cells are pulsed with about 500 nM Tf-I^TfA488/A647 in presence of BFA and CHX to label early endosomes. Arrowheads show MTOC. Scale Bar: 10 μm.
FIG. 22 describes the pH heterogeneity of early endosomes and TGN, pre and post treatment with BFA. IA2.2 cells are pulsed with about 500 nM IFuA546/A647 for about 2 hours and chased for 30 min in presence of about 125 ug/ml CHX followed by absence or presence of BFA (about 20 μg/mL) treatment of about 10 min at about 37° C. Cells are further treated with about 500 nM Tf-ITfA488/A647 in presence of about 20 μg/mL BFA and about 125 ug/ml CHX to label early endosomes.

In data set [4] the test system is 35 bp dsDNA tag, d(AT)4. Briefly: Competitive ELISA, binding affinity of purified scFv to immobilized dsDNA. How it is done: The binding affinity of this scFv with the 35 bp DNA duplex is assayed using competitive ELISA that is performed using a fixed amount of immobilized dsDNA (25 pmoles) followed by the addition of a fixed concentration of scFv (200 nM) in the presence of an increasing concentration of unlabeled dsDNA (I^comp, about 10 nM to about 1 μM) in solution.
This experiment is carried out to find strength of binding of clone C1 with DNA. The affinity and specificity of scFv is analyzed by ELISA after purifying the scFv. Streptavidin-coated 96-well plate is incubated with dsDNA epitope used for screening in 5×SSCT (about 75 mM Sodium citrate, about 750 mM NaCl, about 0.05% Tween-20) for about 1.5 hours for immobilization of dsDNA onto the Streptavidin-coated 96-well plate.
For competition experiments, dsDNA immobilized onto Streptavidin-coated 96-well plate is incubated with the mixture of increasing amount of (from 0 to 10 micromoles) of competing nucleic acid, purified scFv (about 200-300 nM) and 1 in 1000 dilution of anti myc-tag antibody for about 1.5 hours at room temperature. […] Bound scFvs are detected by addition of 100 microliters of 2×TMB/H202 and OD at 450 nm is recorded and normalized with respect to the well where no competitor is added. […]

For data set [5], the system named is DNA epitopes ssDNA, dsDNA, R1, R2, RM. Description: ELISA screen of scFv clones for sequence specific binding to DNA epitopes. Conditions: epitopes R1, R2, RM of the 35 bp dsDNA; listed as C1. How it is done: The 35 bp dsDNA is divided into three regions: • (i) One region is composed of 13 bp of the antigen from the 3′ end (known as Region 1 (R1), FIG. 6a, red), • (ii) the second region corresponds to base pairs 16 to 28 from 3′ end (Region 2 (R2), FIG. 6a, green) and • (iii) the third region is an overlap of regions 1 and 2 (Region M (RM), FIG. 6a, blue).
These three duplexes are annealed and then immobilized on three different 96-well plates. scFv supernatant of the same clones is added to the wells and incubated as described earlier. […] Thus, the scFvs corresponding to these clones recognize only the first 8 base pairs of the 35 bp dsDNA i.e., the sequence d(AT)4.
In order to screen for sequence specificity of binding to duplex DNA, each of the selected clones are similarly assayed by ELISA to a set of surface-immobilized DNA scaffolds. These correspond to a single stranded DNA sequence comprising only the biotinylated strand of the 35 bp dsDNA the 35 bp dsDNA duplex (dsDNA), and three shorter duplex regions R1, R2 and RM corresponding to various sections on the 35 bp dsDNA duplex. R1 corresponds to a […] region at the 3′ terminus of the biotinylated ssDNA oligonucleotide, R2 correspond to a 13 bp region abutting R1, while RM corresponded to a 13 bp region overlapping the 5′ end of R1 and the 3′ of R2. […]

Entries after “also recorded” stand apart in the source; their conditions may differ.

As to Fluorescein (FITC), the Working regime in data set [1] is recorded as 5-8. On to `O=C(N/N=C/c1ccc(O)c(O)c1)c1cc2ccccc2cc1O` [Dynasore], for which the “average pH of early endosomes after wash out” value in data set [2] (Dynasore washed out) is “completely restored”. The “early endosome morphology and dynamics” value in data set [2] (presence of 160 μM dynasore) is on record as “extensive tubulation of the early endosomes as well as their arrested dynamics”. Consider `C[C@H]1CCC/C=C/[C@@H]2C[C@H](O)C[C@H]2[C@H](O)/C=C/C(=O)O1` [Brefeldin A], for which the “morphology of furin containing compartments” value in data set [3] is given as “tubulate extensively”. Consider `O=C1OC2(c3cc(F)c(O)cc3Oc3cc(O)c(F)cc32)c2ccccc21` [Oregon green 488], for which, in data set [1], the pKa worked out at 4.7 and the Working regime was 4.0-5.0.

B1: clone C1: scFv recombinant antibody from phage display binding dsDNA sequence d(AT)4; SEQ ID No. 16 (protein)
scFv: MAEVQLLESGGGLVQPGGSLRLSCAASGFTFSSYAMSWVRQAPGKGLEWVSTITKRGERTKYADSVKGRFTISRDNSKNTLYLQMNSLRAEDTAVYYCAKSTRAFDYWGQGTLVTVSSGGGGSGGGGSGGGGSTDIQMTQSPSSLSASVGDRVTITCRASQSISSYLNWYQQKPGKAPKLLIYGASYLQSGVPSRFSGSGSGTDFTLTISSLQPEDFATYYCQQTRFSPNTFGQGTKVEIKRAAAHHHHHHGAAEQKPISEEDLNGAAGGD
modifications: scFv Protein Sequence; DNA_BIND (1)..(271)
As for B1, in data set [4] (25 pmoles immobilized dsDNA, 200 nM scFv, competitor I^comp 10 nM to 1 μM), the relative binding constant entry is “about 1.25×10^7 M^−1”. For the same molecule, the Kd in data set [4] (35 bp DNA duplex / d(AT)4) was 80 nM. Also, the “DNA epitope specificity by ELISA” value in data set [5] is “binding to R1 and no other region; also recorded: binds a DNA sequence ATATATAT”.

For the origin of these results see patent US10443089B2, “Methods of multiplexing DNA sensors and localizing DNA sensor” (NATIONAL CENTRE FOR BIOLOGICAL SCIENCES (NCBS-TIFR), priority 2013, dated 2019).
